Values after ≈ are worked out from the molar mass of the structure shown. Read-outs that look alike come from different tables or passages of the source. Residues, ends and D or L forms follow the SMILES beside them. *: point of attachment. Hexanoyl = CCCCCC(=O)*
How the values were obtained:
[1] = test system: human whole blood; settings: for Calculated hemolysis ratio: human whole blood, peptides 100 μM, 60 min 37 °C, neg. PBS, 3 x 2 replicates
[2] = test system: washed human erythrocytes; assay: Hemolysis assay, washed human erythrocytes
[3] = test system: rabbit erythrocytes; settings: AMPs 100 μM, 1 hour 37 °C, pos. 10% Triton X-100, neg. PBS, 3 x 2 replicates
From the text: (§1) Cytotoxicity studies are important during characterization of novel compounds or materials intended for interactions within human biological systems in vivo. Evaluation of the extent to which the compound induces disruption of the membrane of erythrocytes (red blood cells), thereby causing release of cellular content, often constitutes an initial step in such cytotoxicity assessments. The assay used in this context is generally referred to as the hemolysis assay, which has the advantages of being cheap, accessible, and simple to perform. Blood is drawn from a human or an animal, and next, the washed erythrocytes are incubated together with the compound or material under investigation. If the compound causes hemolysis, hemoglobin (along with other cellular constituents) will be released into the supernatant.
(§2) Blood from mice, rats, and rabbits was provided by the Department of Comparative Medicine at Oslo University Hospital (Marianne Aannestad). For mice and rats, the blood was collected from the heart by using 25 G and 21 G needles, respectively, whereas for rabbits, the blood was collected by free bleed through the ear using a yellow neoflon (24 G). All animals were wild type and anesthetized prior to the procedure.
(§3) All blood was collected in Lithium Heparin tubes 4 mL (Greiner Bio-One, Kremsmünster, Austria) or Coagulation sodium citrate 3.2% tubes 3 mL (Greiner Bio-One).
(§4) AMP 2 contained an N-terminal hexanoic acid moiety, whereas all peptides contained amidated C-termini. These three peptides were synthesized by Genscript Inc. (Piscataway, NJ, USA), and stock solutions of 1 mg/mL were made from the purchased powders. […] All peptides were diluted to yield a 100 μM final concentration in the hemolysis assays.
(§5) Triton X-100 (T8787) and Tween-20 (P2287) detergents were purchased from Sigma Aldrich and diluted to obtain 10% stock solutions by weighing (w/v). A sodium Dodecyl Sulfate (SDS) 10% solution was purchased from Invitrogen (Waltham, MA, USA, 15553027). All subsequent dilutions annotated in figures were made from these stocks.
(§6) As soon as possible after phlebotomy, the blood samples were centrifuged at 1700× g for 5 min. The supernatant was removed by aspiration and 2 mL of PBS pH 7 was added. The washing step was repeated three times or until the supernatant was clear. After final aspiration, the remaining pellet was diluted 1:100 in PBS pH 7 to obtain a 1% erythrocyte suspension (or 1:100, 1:50, and 1:20 for assays testing the effect of erythrocyte concentration). For experiments using whole blood, the washing steps were not performed, but downstream experimentation was identical. For experiments performed with 96-well plates, 50 μL of test compound, water, or detergent were mixed with 50 μL of blood sample (1% erythrocyte suspension or whole blood). For experiments using larger volumes, 250 μL of test compound, water, or detergent were mixed with 250 μL blood sample in an Eppendorf tube. Samples were subsequently incubated at 37 °C for 60 min (or 15, 30, 60, 90, or 120 min for assays evaluating the effect of incubation time). After incubation, the plates/tubes were centrifuged at 1700× g for 5 min, and then 50 μL of the supernatants were transferred to transparent, flat-bottom 96-well plates (Anicrin, A013418). Finally, absorption was measured at 405, 530, and 570 nm in a Victor Nivo Multimode microplate reader (Perkin Elmer, Waltham, MA, USA).

[4] = test system: rabbit whole blood; settings: for Hemolysis ratio: rabbit whole blood, AMPs 100 μM, 1 hour 37 °C, 3 x 2 replicates
From the text: as §1, §2, §3, §4, §5, §6

[5] = test system: rat erythrocytes; settings: AMPs 100 μM, 1 hour 37 °C, pos. 10% Triton X-100, neg. PBS, 3 x 2 replicates
From the text: as §1, §2, §3, §4, §5, §6

[6] = test system: mouse erythrocytes; settings: AMPs 100 μM, 1 hour 37 °C, pos. 10% Triton X-100, neg. PBS, 3 x 2 replicates
From the text: as §1, §2, §3, §4, §5, §6

[7] = test system: E. coli; settings: E. coli
[8] = test system: washed human erythrocytes; assay: Flow cytometry of treated erythrocytes with live/dead amine-reactive stain; format: cell-based; settings: washed human erythrocytes treated 60 minutes, AMPs 100 μM, amine-reactive dye 488, flow cytometry 533/30 nm
Procedure: Briefly, a 1% washed erythrocyte solution was diluted to ~10^5 cells/mL and 0.4% Trypan blue (1:1 ratio) was added before 10 μL of the stained cell suspension was added to the Countess cell counting chamber slide. After a 30 s incubation, the slide was inserted into the instrument for automatic cell counting.
The Countess II automated cell counter (see above) was used to adjust the negative control sample to ~10^5 cells/mL and to subsequently dilute all samples by the same factor. Then, 0.5 μL of live/dead amine-reactive dye 488 (Fisher Scientific, Waltham, MA, USA) was added to 0.5 mL cell suspension and incubated for 30 min protected from light. Subsequently, the samples were washed twice with PBS pH 7 containing 1% bovine serum albumin (BSA), and finally resuspended in PBS pH 7 with 1% BSA. Cells were next counted, and the fluorescence measured using the 533/30 nm filter in an Accuri C6 flow cytometer (BD Biosciences, Franklin Lakes, NJ, USA).

CCCCCC(=O)N[C@@H](CCSC)C(=O)N[C@@H](CCCCN)C(=O)N[C@@H](CCCNC(=N)N)C(=O)N[C@@H](CCCCN)C(=O)N[C@@H](CCCCN)C(=O)N[C@@H](CCCCN)C(=O)N[C@H](C(=O)N[C@@H](CC(C)C)C(=O)N[C@H](C(=O)N[C@@H](CCCCN)C(=O)N[C@@H](CCCCN)C(=O)N[C@H](C(=O)N[C@@H](CC(C)C)C(=O)N[C@@H](CCCCN)C(=O)N[C@@H](CC(C)C)C(=O)N[C@@H](CCCCN)C(=O)N[C@@H](CO)C(=O)N[C@@H](CO)C(=O)N[C@@H](C)C(=O)N[C@@H](Cc1ccc(O)cc1)C(N)=O)C(C)C)[C@@H](C)CC)[C@@H](C)CC [AMP 2] (Hexanoyl-MKRKKKILIKKVLKLKSSAY-NH2)
Calculated hemolysis ratio ([1]; OD 405 nm (signal saturated), pos. 10% SDS): 0.4 ± 0.2%
Calculated hemolysis ratio ([1]; OD 530 nm, pos. 10% SDS): 0.2%
Calculated hemolysis ratio ([1]; OD 570 nm, pos. 10% Triton X-100 (table title; text says 10% SDS)): −0.1%
Fold reduction in HR in human whole blood in comparison with washed erythrocytes measured at 405 nm ([1]; whole blood HR with 10% SDS as positive control (Table 5) vs washed erythrocytes (Table 6), 100 μM): > 41 fold
Calculated hemolysis ratio ([2]; 1% washed human erythrocytes, OD 530 nm, peptides 100 μM, 60 min 37 °C, pos. 10% Triton X-100, neg. PBS, 3 x 2 replicates): 5.2 ± 3%
Calculated hemolysis ratio ([2]; 1% washed human erythrocytes, OD 570 nm, peptides 100 μM, 60 min 37 °C, pos. 10% Triton X-100, neg. PBS, 3 x 2 replicates): 4.8 ± 6.6%
Calculated Hemolysis (%) ([2]; 2% pooled human erythrocytes, AMPs 100 µM, 60 min 37 °C, 405 nm, pos. 10% Triton X-100, neg. PBS, 3 x 2 replicates): 5.6 ± 0.8%
Calculated Hemolysis (%) ([2]; 5% pooled human erythrocytes, AMPs 100 µM, 60 min 37 °C, 405 nm, pos. 10% Triton X-100, neg. PBS, 3 x 2 replicates): 5.0 ± 3.3%
Calculated hemolysis ratio ([2]; Table 1: 1% human erythrocytes, 100 µM, 60 min 37 °C, OD 405 nm, pos. 10% Triton X-100, neg. PBS, mean ± SD, 3 experimental x 2 technical replicates): 8.5 ± 1.4%
Calculated hemolysis ratio ([2]; Table 2: pooled blood from all 10 individuals, 1% erythrocytes, AMPs 100 µM, 60 min 37 °C, 405 nm, pos. 10% Triton X, neg. PBS, 3 x 2 replicates): 12.4 ± 3.1%
Calculated Hemolysis (%) ([2]; Table 3: 1% pooled human erythrocytes, AMPs 100 µM, 60 min 37 °C, 405 nm, pos. 10% Triton X-100, neg. PBS, 3 x 2 replicates): 12.4 ± 3.1%
Calculated hemolysis ratio ([2]; Table 4: incubation 60 min, 37 °C, 1% human erythrocytes, AMPs 100 µM, 405 nm, pos. 10% Triton X-100, neg. PBS, 3 biological x 2 technical replicates): 7.8 ± 1.3%
Calculated hemolysis ratio ([2]; Table 6: 1% washed human erythrocytes, OD 405 nm, peptides 100 μM, 60 min 37 °C, pos. 10% Triton X-100, neg. PBS, 3 x 2 replicates): 8.2 ± 1.4%
Calculated hemolysis ratio ([2]; human individual # 1, 1% erythrocytes, AMPs 100 µM, 60 min 37 °C, 405 nm, pos. 10% Triton X, neg. PBS, 3 x 2 replicates): 8.2 ± 1.3%
Calculated hemolysis ratio ([2]; human individual # 2, 1% erythrocytes, AMPs 100 µM, 60 min 37 °C, 405 nm, pos. 10% Triton X, neg. PBS, 3 x 2 replicates): 10 ± 0.7%
Calculated hemolysis ratio ([2]; human individual # 3, 1% erythrocytes, AMPs 100 µM, 60 min 37 °C, 405 nm, pos. 10% Triton X, neg. PBS, 3 x 2 replicates): 9.8 ± 0.8%
Calculated hemolysis ratio ([2]; human individual # 4, 1% erythrocytes, AMPs 100 µM, 60 min 37 °C, 405 nm, pos. 10% Triton X, neg. PBS, 3 x 2 replicates): 10.4 ± 0.9%
Calculated hemolysis ratio ([2]; human individual # 5, 1% erythrocytes, AMPs 100 µM, 60 min 37 °C, 405 nm, pos. 10% Triton X, neg. PBS, 3 x 2 replicates): 11 ± 1%
Calculated hemolysis ratio ([2]; human individual # 6, 1% erythrocytes, AMPs 100 µM, 60 min 37 °C, 405 nm, pos. 10% Triton X, neg. PBS, 3 x 2 replicates): 6.4 ± 0.7%
Calculated hemolysis ratio ([2]; human individual # 7, 1% erythrocytes, AMPs 100 µM, 60 min 37 °C, 405 nm, pos. 10% Triton X, neg. PBS, 3 x 2 replicates): 8.9 ± 0.8%
Calculated hemolysis ratio ([2]; human individual # 8, 1% erythrocytes, AMPs 100 µM, 60 min 37 °C, 405 nm, pos. 10% Triton X, neg. PBS, 3 x 2 replicates): 9.1 ± 1.1%
Calculated hemolysis ratio ([2]; human individual # 9, 1% erythrocytes, AMPs 100 µM, 60 min 37 °C, 405 nm, pos. 10% Triton X, neg. PBS, 3 x 2 replicates): 9.6 ± 1%
Calculated hemolysis ratio ([2]; human individual # 10, 1% erythrocytes, AMPs 100 µM, 60 min 37 °C, 405 nm, pos. 10% Triton X, neg. PBS, 3 x 2 replicates): 9.8 ± 0.7%
Calculated hemolysis ratio ([2]; incubated in polypropylene tubes, 1% washed human erythrocytes, peptides 100 μM, 60 min 37 °C, 405 nm, pos. 10% Triton X-100, neg. PBS, 3 x 2 replicates): 8.2 ± 2.6%
Calculated hemolysis ratio ([2]; incubated in polystyrene tubes, 1% washed human erythrocytes, peptides 100 μM, 60 min 37 °C, 405 nm, pos. 10% Triton X-100, neg. PBS, 3 x 2 replicates): 9.7 ± 3.4%
Calculated hemolysis ratio ([2]; incubation 15 min, 37 °C, 1% human erythrocytes, AMPs 100 µM, 405 nm, pos. 10% Triton X-100, neg. PBS, 3 biological x 2 technical replicates): 7.8 ± 1.1%
Calculated hemolysis ratio ([2]; incubation 30 min, 37 °C, 1% human erythrocytes, AMPs 100 µM, 405 nm, pos. 10% Triton X-100, neg. PBS, 3 biological x 2 technical replicates): 7.4 ± 1.2%
Calculated hemolysis ratio ([2]; incubation 90 min, 37 °C, 1% human erythrocytes, AMPs 100 µM, 405 nm, pos. 10% Triton X-100, neg. PBS, 3 biological x 2 technical replicates): 8 ± 0.8%
Calculated hemolysis ratio ([2]; incubation 120 min, 37 °C, 1% human erythrocytes, AMPs 100 µM, 405 nm, pos. 10% Triton X-100, neg. PBS, 3 biological x 2 technical replicates): 8.6 ± 1.4%
Observed hemolytic properties (qualitative) ([2]; reason for choice of the AMPs): low
Calculated hemolysis ratio ([2]; total incubation volume 100 μL, 1% washed human erythrocytes, peptides 100 μM, 60 min 37 °C, 405 nm, pos. 10% Triton X-100, neg. PBS, 3 x 2 replicates): 9.7 ± 3.4%
Calculated hemolysis ratio ([2]; total incubation volume 500 μL, 1% washed human erythrocytes, peptides 100 μM, 60 min 37 °C, 405 nm, pos. 10% Triton X-100, neg. PBS, 3 x 2 replicates): 8.8 ± 3.9%
Hemolysis ratio ([3]; Table S4: washed rabbit erythrocytes, OD 405 nm): 4.6 +/- 0.7%
Hemolysis ratio ([3]; washed rabbit erythrocytes, OD 530 nm): 1.7 +/- 3.6%
Hemolysis ratio ([3]; washed rabbit erythrocytes, OD 570 nm): 2.2 +/- 1.4%
Fold decrease of hemolytic effect in rabbit whole blood vs washed rabbit erythrocytes ([4]; cf. Tables S3 and S4, 100 μM): 23 fold
Hemolysis ratio ([4]; OD 405 nm, neg. PBS): 0.6 +/- 3.2%
Hemolysis ratio ([4]; OD 530 nm, pos. 10% SDS, neg. PBS): 0.2 +/- 0.6%
Hemolysis ratio ([4]; OD 570 nm, pos. 10% Triton X-100, neg. PBS): 0.2 +/- 0.5%
Hemolysis ratio ([5]; Table S4: washed rat erythrocytes, OD 405 nm): 5.2 +/- 1.9%
Hemolysis ratio ([5]; washed rat erythrocytes, OD 530 nm): 2.6 +/- 5.7%
Hemolysis ratio ([5]; washed rat erythrocytes, OD 570 nm): 3.3 +/- 3%
Hemolysis ratio ([6]; Table S4: washed mouse erythrocytes, OD 405 nm): 0.1 +/- 2%
Hemolysis ratio ([6]; washed mouse erythrocytes, OD 530 nm): -11.8 +/- 8%
Hemolysis ratio ([6]; washed mouse erythrocytes, OD 570 nm): -2.7 +/- 1.9%
Minimum inhibitory concentration (E. coli) [7]: 4 µM (≈ 10 µg/mL)
Fluorescence intensity per cell of remaining intact cells (live/dead stain) [8]: low fluorescence
